The record followed here is US7795261B2, “Substituted 1-piperidin-4-yl-4-pyrrolidin-3-yl-piperazine derivatives and their use as neurokinin antagonists” (Janssen Pharmaceutica NV, priority 2002, dated 2010).

Structures are written as SMILES.

One test deals with NK1 (Homo sapiens, UniProt P25103). In words: Signal transduction (ST), intracellular Ca++ (FLIPR), NK1 antagonistic activity. It is filed as cell-based. The conditions noted are these: read-out: pIC50 NK1 (converted). The protocol:
(§1) This test evaluates in vitro functional NK1 antagonistic activity. For the measurements of intracellular Ca^++ concentrations the cells were grown on 96-well (black wall/transparent bottom) plates from Costar for 2 days until they reached confluence. The cells were loaded with 2 μM Fluo3 in DMEM containing 0.1% BSA and 2.5 mM probenecid for 1 h at 37° C. They were washed 3× with a Krebs buffer (140 mM NaCl, 1 mM MgCl2×6H2O, 5 mM KCl, 10 mM glucose, 5 mM HEPES; 1.25 mM CaCl2; pH 7.4) containing 2.5 mM probenecid and 0.1% BSA (Ca^++-buffer). The cells were preincubated with a concentration range of antagonists for 20 min at RT and Ca^++-signals after addition of the agonists were measured in a Fluorescence Image Plate Reader (FLIPR from Molecular Devices, Crawley, England). The peak of the Ca^++-transient was considered as the relevant signal and the mean values of corresponding wells were analysed as described below.
The sigmoidal dose response curves were analysed by computerised curve-fitting, using the GraphPad Program. […] For antagonist responses the IC50-value was calculated using non-linear regression. […]

The target in the next test is T1, NK3 (Homo sapiens, UniProt P29371).
T1 sequence (P29371 1-465): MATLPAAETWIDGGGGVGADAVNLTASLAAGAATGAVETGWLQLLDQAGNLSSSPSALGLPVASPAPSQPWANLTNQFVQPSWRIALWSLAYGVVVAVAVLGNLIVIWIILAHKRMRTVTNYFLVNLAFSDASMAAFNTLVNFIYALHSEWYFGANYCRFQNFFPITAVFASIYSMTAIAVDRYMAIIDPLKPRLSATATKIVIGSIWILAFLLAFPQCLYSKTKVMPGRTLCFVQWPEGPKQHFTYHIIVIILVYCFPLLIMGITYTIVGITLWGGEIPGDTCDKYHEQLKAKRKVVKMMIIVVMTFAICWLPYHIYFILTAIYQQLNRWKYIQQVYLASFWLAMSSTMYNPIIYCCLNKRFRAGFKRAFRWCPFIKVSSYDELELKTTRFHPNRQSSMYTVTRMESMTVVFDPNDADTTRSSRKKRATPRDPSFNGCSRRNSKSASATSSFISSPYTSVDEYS
In words: Signal transduction (ST), intracellular Ca++ (FLIPR), NK3. The test is classed as cell-based. The settings on record: read-out: pIC50 NK3 (converted). The protocol: [The procedure below names another target; the source lists this target under the same test.] as §1
The sigmoidal dose response curves were analysed by computerised curve-fitting, using the GraphPad Program. […] For antagonist responses the IC50-value was calculated using non-linear regression.
The last columns indicates—without being limited therefore—for which the compounds might be most suitable. Of course, since for some neurokinin receptors no data was determined, it is obvious that these compounds might be attributed to another suitable use.

Chain of NK1 (P25103 whole entry): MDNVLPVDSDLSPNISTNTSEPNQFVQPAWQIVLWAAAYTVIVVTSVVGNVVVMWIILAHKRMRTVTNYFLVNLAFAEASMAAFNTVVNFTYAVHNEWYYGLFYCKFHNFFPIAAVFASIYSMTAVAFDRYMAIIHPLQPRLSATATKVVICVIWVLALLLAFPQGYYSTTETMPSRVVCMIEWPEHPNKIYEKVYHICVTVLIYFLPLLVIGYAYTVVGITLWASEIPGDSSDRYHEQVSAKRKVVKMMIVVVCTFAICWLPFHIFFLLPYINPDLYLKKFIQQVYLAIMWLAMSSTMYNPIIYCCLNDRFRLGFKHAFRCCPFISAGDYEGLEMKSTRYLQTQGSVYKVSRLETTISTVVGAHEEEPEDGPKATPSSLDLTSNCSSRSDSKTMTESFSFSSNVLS

Take `O=C(c1cc(C(F)(F)F)cc(C(F)(F)F)c1)N1CC[C@H](N2CCN(C3CCN(S(=O)(=O)c4cccs4)C3)CC2)C[C@H]1Cc1ccc(Cl)c(Cl)c1` (relative stereo) [Compound 163]: the IC50 was 0.0251 µM on NK1 and 0.158 µM at NK3.
Take `O=C(c1cc2ccccc2s1)N1CCC(N2CCN([C@H]3CCN(C(=O)c4cc(C(F)(F)F)cc(C(F)(F)F)c4)[C@H](Cc4ccccc4)C3)CC2)C1` (stereo partly drawn) [Compound 63]: the IC50 is 0.126 µM at NK1 and 3.16 µM on NK3.
With `CN(C)CC(=O)N1CCC(N2CCN([C@H]3CCN(C(=O)c4cc(C(F)(F)F)cc(C(F)(F)F)c4)[C@H](Cc4ccccc4)C3)CC2)C1` (stereo partly drawn) [Compound 202], the IC50 at NK1 was 0.0398 µM; on NK3, 6.31 µM.
`COCCC(=O)N1CC[C@@H](N2CCN([C@H]3CCN(C(=O)c4cc(C(F)(F)F)cc(C(F)(F)F)c4)[C@H](Cc4ccccc4)C3)CC2)C1` [Compound 414]: the results for the IC50 at NK1 and on NK3 were 0.0398 µM and 0.631 µM, respectively.
The matching figures for `O=C(C1CCCCC1)N1CCC(N2CCN(C3CCN(C(=O)c4cc(C(F)(F)F)cc(C(F)(F)F)c4)C(Cc4ccccc4)C3)CC2)C1` (single isomer, unassigned) [Compound 402]: 0.0158 µM and 0.501 µM.
`N#Cc1cccc(C(=O)N2CCC(N3CCN(C4CCN(C(=O)c5cc(C(F)(F)F)cc(C(F)(F)F)c5)C(Cc5ccccc5)C4)CC3)C2)c1` (single isomer, unassigned) [Compound 192]: the IC50 at NK1 is 0.01 µM; on NK3, 0.631 µM.
For `O=C(C(NCCO)c1ccccc1)N1CCC(N2CCN([C@H]3CCN(C(=O)c4cc(C(F)(F)F)cc(C(F)(F)F)c4)[C@H](Cc4ccccc4)C3)CC2)C1` (stereo partly drawn) [Compound 106], in that order: 0.0316 µM and 3.98 µM.
Regarding `CC(C)(C)OC(=O)N1CCC(C(=O)N2CCC(N3CCN([C@H]4CCN(C(=O)c5cc(C(F)(F)F)cc(C(F)(F)F)c5)[C@H](Cc5ccccc5)C4)CC3)C2)CC1` (stereo partly drawn) [Compound 210], the IC50 on NK1 was 0.0158 µM; at NK3, 7.94 µM.
Consider `O=C(c1cc(C(F)(F)F)cc(C(F)(F)F)c1)N1CCC(N2CCN(C3CCN(c4noc5ccccc45)C3)CC2)CC1Cc1ccccc1` (stereo not drawn) [Compound 204], for which the IC50 on NK1 was 0.0251 µM; at NK3 it was 2.51 µM.
`O=C(C1CC1)N1CCC(N2CCN(C3CCN(C(=O)c4cc(C(F)(F)F)cc(C(F)(F)F)c4)C(Cc4ccccc4)C3)CC2)C1` (single isomer, unassigned) [Compound 70]: the IC50 on NK1 is 0.0126 µM; at NK3, 0.501 µM.
On to `O=C(c1ccoc1)N1CCC(N2CCN(C3CCN(C(=O)c4cc(C(F)(F)F)cc(C(F)(F)F)c4)C(Cc4ccccc4)C3)CC2)C1` (single isomer, unassigned) [Compound 138], for which the figures for the IC50 on NK1 and at NK3 were 0.126 µM and 6.31 µM, respectively.
For `O=C(C1CCOC1)N1CCC(N2CCN(C3CCN(C(=O)c4cc(C(F)(F)F)cc(C(F)(F)F)c4)C(Cc4ccc(F)c(F)c4)C3)CC2)C1` (single isomer, unassigned) [Compound 227], in that order: 0.00316 µM and 1.58 µM.
Regarding `Cc1nnsc1C(=O)N1CCC(N2CCN(C3CCN(C(=O)c4cc(C(F)(F)F)cc(C(F)(F)F)c4)C(Cc4ccc(Cl)c(Cl)c4)C3)CC2)C1` (stereo not drawn) [Compound 161], the IC50 is 0.0126 µM at NK1 and 3.16 µM on NK3.
As for `CC(C)(C)OC(=O)N1CCC(N2CCN(C3CCN(C(=O)c4cc(C(F)(F)F)cc(C(F)(F)F)c4)C(Cc4ccc(Cl)c(Cl)c4)C3)CC2)C1` (single isomer, unassigned) [Compound 165], the IC50 on NK1 was 0.0501 µM; at NK3, 0.794 µM.
With `CC(C)Oc1cccc(C(=O)N2CCC(N3CCN([C@H]4CCN(C(=O)c5cc(C(F)(F)F)cc(C(F)(F)F)c5)[C@H](Cc5ccccc5)C4)CC3)C2)c1` (stereo partly drawn) [Compound 15], the IC50 is 0.0316 µM at NK1 and 2 µM at NK3.
As to `O=C(C(c1ccccc1)n1cc(Br)cn1)N1CCC(N2CCN([C@H]3CCN(C(=O)c4cc(C(F)(F)F)cc(C(F)(F)F)c4)[C@H](Cc4ccccc4)C3)CC2)C1` (stereo partly drawn) [Compound 111], the IC50 on NK1 was 0.0794 µM; on NK3, 6.31 µM.
The matching figures for `CC(C(=O)N1CCC(N2CCN([C@H]3CCN(C(=O)c4cc(C(F)(F)F)cc(C(F)(F)F)c4)[C@H](Cc4ccc(F)c(F)c4)C3)CC2)C1)c1ccccc1` (single isomer, unassigned) [Compound 233]: 0.0251 µM and 0.794 µM.
For the molecule `O=C(C1CCC1)N1CCC(N2CCN([C@H]3CCN(C(=O)c4cc(C(F)(F)F)cc(C(F)(F)F)c4)[C@H](Cc4ccccc4)C3)CC2)C1` (stereo partly drawn) [Compound 179], the IC50 is 0.00631 µM at NK1 and 1.58 µM on NK3.
As to `N#Cc1cccc(C(=O)N2CCC(N3CCN([C@H]4CCN(C(=O)c5cc(C(F)(F)F)cc(C(F)(F)F)c5)[C@H](Cc5ccccc5)C4)CC3)C2)c1` (stereo partly drawn) [Compound 12], the figures for the IC50 at NK1 and at NK3 were 0.0794 µM and 0.126 µM, respectively.
As for `O=C(C(=O)N1CCC(N2CCN([C@H]3CCN(C(=O)c4cc(C(F)(F)F)cc(C(F)(F)F)c4)[C@H](Cc4ccccc4)C3)CC2)C1)c1cccs1` (stereo partly drawn) [Compound 188], the IC50 at NK1 was 0.0251 µM; at NK3, 2 µM.
`O=C(C1CC1)N1CCC(N2CCN(C3CCN(C(=O)c4cc(C(F)(F)F)cc(C(F)(F)F)c4)C(Cc4ccccc4)C3)CC2)C1` (single isomer, unassigned) [Compound 137]: the IC50 was 0.158 µM at NK1 and 6.31 µM at NK3.
On to `O=C(c1cc2ccccc2o1)N1CCC(N2CCN([C@H]3CCN(C(=O)c4cc(C(F)(F)F)cc(C(F)(F)F)c4)[C@H](Cc4ccccc4)C3)CC2)C1` (stereo partly drawn) [Compound 62], for which the IC50 on NK1 is 0.0631 µM; at NK3, 3.98 µM.
Regarding `Cc1oc(-c2ccccc2)cc1C(=O)N1CCC(N2CCN([C@H]3CCN(C(=O)c4cc(C(F)(F)F)cc(C(F)(F)F)c4)[C@H](Cc4ccccc4)C3)CC2)C1` (stereo partly drawn) [Compound 38], the IC50 was 0.2 µM on NK1 and 7.94 µM at NK3.
Consider `Cc1nnsc1C(=O)N1CCC(N2CCN(C3CCN(C(=O)c4cc(C(F)(F)F)cc(C(F)(F)F)c4)C(Cc4ccccc4)C3)CC2)C1` (single isomer, unassigned) [Compound 381], for which the IC50 at NK1 is 0.00501 µM; at NK3 it was 2.51 µM.
The matching figures for `O=C(c1ccc(Cl)cc1Cl)N1CCC(N2CCN([C@H]3CCN(C(=O)c4cc(C(F)(F)F)cc(C(F)(F)F)c4)[C@H](Cc4ccccc4)C3)CC2)C1` (stereo partly drawn) [Compound 22]: 0.0501 µM and 2.51 µM.
For the molecule `Cc1ccccc1-n1cncc1CN1CCC(N2CCN([C@H]3CCN(C(=O)c4cc(C(F)(F)F)cc(C(F)(F)F)c4)[C@H](Cc4ccccc4)C3)CC2)C1` (stereo partly drawn) [Compound 9], the IC50 is 0.0398 µM at NK1 and 1.26 µM at NK3.
For `O=C(c1ccccc1Cl)N1CCC(N2CCN(C3CCN(C(=O)c4cc(C(F)(F)F)cc(C(F)(F)F)c4)C(Cc4ccccc4)C3)CC2)C1` (single isomer, unassigned) [Compound 87], in that order: 0.126 µM and 1.26 µM.
For the molecule `O=C(c1snnc1CO)N1CCC(N2CCN(C3CCN(C(=O)c4cc(C(F)(F)F)cc(C(F)(F)F)c4)C(Cc4ccccc4)C3)CC2)C1` (stereo not drawn) [Compound 166], the IC50 is 0.00631 µM at NK1 and 1.58 µM on NK3.
As for `O=C(C1CC1)N1CCC(N2CCN([C@@H]3CCN(C(=O)c4cc(C(F)(F)F)cc(C(F)(F)F)c4)[C@H](Cc4ccc(Cl)c(Cl)c4)C3)CC2)C1` (relative stereo) [Compound 143], the IC50 is 0.0398 µM on NK1 and 3.16 µM on NK3.
Turning to `CC(=O)N1CCCC1C(=O)N1CCC(N2CCN([C@H]3CCN(C(=O)c4cc(C(F)(F)F)cc(C(F)(F)F)c4)[C@H](Cc4ccccc4)C3)CC2)C1` (stereo partly drawn) [Compound 187], the values for the IC50 on NK1 and at NK3 were 0.0158 µM and 5.01 µM, respectively.
Take `COCCC(=O)N1CC[C@H](N2CCN([C@H]3CCN(C(=O)c4cc(C(F)(F)F)cc(C(F)(F)F)c4)[C@H](Cc4ccccc4)C3)CC2)C1` [Compound 413]: the IC50 on NK1 was 0.0316 µM; on NK3 it was 2 µM.
With `O=C(CNc1ccccc1CO)N1CCC(N2CCN(C3CCN(C(=O)c4cc(C(F)(F)F)cc(C(F)(F)F)c4)C(Cc4ccccc4)C3)CC2)C1` (stereo not drawn) [Compound 207], the IC50 was 0.02 µM at NK1 and 3.98 µM on NK3.
The matching figures for `Cc1nc(C)c(C(=O)N2CCC(N3CCN([C@H]4CCN(C(=O)c5cc(C(F)(F)F)cc(C(F)(F)F)c5)[C@H](Cc5ccccc5)C4)CC3)C2)s1` (stereo partly drawn) [Compound 50]: 0.00631 µM and 3.16 µM.
